Counter-ions that a name gives are not always drawn. Like-named read-outs stand apart in the source and are kept apart here.
Columns and labels:
[1] = system: isolated auricle of guinea-pig; experiment: isolated auricle of guinea-pig: antagonism of isoprenaline (PA2); assay type: cell-based; conditions: Cavia porcellus, agonist isoprenaline, PA2 = cologarithm of antagonist concentration requiring twice as much agonist
Source text: (§1) The following Table gives the PA2 determined with respect to this agonist (PA2 is the cologarithm of the antagonist concentration in the presence of which it is required to use twice as much agonist than in its absence to obtain the same effect; vide, on the subject; Calcul des PA2, Fiche Technique n° 16, J. Pharmacol. Paris, 1971, 2, 3, 373-380).

[2] = system: isolated trachea of guinea-pig; experiment: isolated trachea of guinea-pig: antagonism of isoprenaline relaxation (PA2); assay type: cell-based; conditions: Cavia porcellus, agonist isoprenaline, PA2 = cologarithm of antagonist concentration requiring twice as much agonist
Source text: on the isolated trachea of guinea-pigs: they inhibit the relaxation due to the action of this same isoprenaline.
as §1

action of isoprenaline = experiment: inhibition of the action of isoprenaline on cardiac parameters in anesthetized dog; assay type: in vivo; conditions: Canis lupus familiaris, isoprenaline 0.02 micromole/kg
Source text: This beta-blocking activity is again apparent in vivo. […] The following Table sets forth the dosages which inhibit 50% of the effect of 0.02 micromole/kg of isoprenaline on blood pressure, on cardiac rhythm and on the contractile strength of the heart.

[3] = read-out: PA2 Chronotropic effect (converted)
[4] = read-out: PA2 Inotropic effect (converted)
[5] = blood pressure, read-out: 50% inhibiting dosage of the action of isoprenaline: Blood pressure
[6] = cardiac rhythm, read-out: 50% inhibiting dosage of the action of isoprenaline: Rhythm
[7] = contractile strength of the heart, read-out: 50% inhibiting dosage of the action of isoprenaline: Contractile strength

| SMILES | Kb [1, 3] [nM] | Kb [1, 4] [nM] | Kb [2] [nM] | ED50 (action of isoprenaline; [5]) [µmol/kg] | ED50 (action of isoprenaline; [6]) [µmol/kg] | ED50 (action of isoprenaline; [7]) [µmol/kg] |
| --- | --- | --- | --- | --- | --- | --- |
| CC(=NOCC(O)CNC(C)(C)C)c1ccc(Br)cc1 (centres unmarked) [Example 25] | 26.3 | 12.6 | 3.09 |  |  |  |
| CC(=NOCC(O)CNC(C)(C)C)c1ccc(C)cc1 (centres unmarked) [Example 17] | 14.8 | 13.8 | 12.9 |  |  |  |
| CC(=NOCC(O)CNC(C)(C)C)c1ccc([N+](=O)[O-])cc1 (centres unmarked) [Example 23] | 34.7 | 25.1 | 28.8 | 0.1 | 3 | 3 |
| CC(=NOCC(O)CNC(C)(C)C)c1ccccc1 (centres unmarked) [Example 21] | 200 | 117 | 24 |  |  |  |
| CC(=NOCC(O)CNC(C)(C)C)c1cccc(C)c1 (centres unmarked) [Example 26] | 7.76 | 7.94 | 5.01 |  |  |  |
| CC(C)NCC(O)CON=C(c1ccccc1)c1ccccc1 (centres unmarked) [Example 14] | 162 | 191 | 32.4 |  |  |  |
| CC(C)NCC(O)CON=C1CCc2ccccc21 (centres unmarked) [Example 12] | 363 | 513 |  |  |  |  |
| CC(=NOCC(O)CNC(C)(C)C)c1ccc(N)cc1 (centres unmarked) [Example 27] | 22.9 | 14.5 | 79.4 |  |  |  |
| CC(C)NCC(O)CON=Cc1ccc2ccccc2c1 (centres unmarked) [Example 3, 2-naphthalene carbaldehyde-0-(3-isopropylamino-2-hydroxy-propyl)-oxime hydrochloride] | 295 | 115 | 0.427 |  |  |  |
| CC(C)NCC(O)CON=C1c2ccccc2-c2ccccc21 (centres unmarked) [Example 9] | 40.7 | 79.4 | 166 | 1.3 | > 17 | > 17 |
| CC(C)(C)NCC(O)CON=C(c1ccccc1)c1ccccc1 (centres unmarked) [Example 4, benzophenone-0-(3-tert.butylamino-2-hydroxy-propyl)-oxime hydrochloride] | 162 | 427 | 11 |  |  |  |
| CC(=NOCC(O)CNC(C)(C)C)c1ccccc1C (centres unmarked) [Example 24] | 219 | 204 | 12.6 |  |  |  |
| CC(=NOCC(O)CNC(C)(C)C)c1ccc(C#N)cc1 (centres unmarked) [Example 31] | 120 | 123 | 102 |  |  |  |
| CC(C)(C)NCC(O)CON=Cc1ccccc1 (centres unmarked) [Example 19] | 550 | 269 | 589 |  |  |  |
| COc1ccc(C(C)=NOCC(O)CNC(C)(C)C)cc1 (centres unmarked) [Example 22] | 14.1 | 11.5 | 1.82 |  |  |  |
| CC(C)(C)NCC(O)CON=Cc1ccc2ccccc2c1 (centres unmarked) [Example 28] | 35.5 | 32.4 | 42.7 |  |  |  |
| CC(C)NCC(O)CON=Cc1ccccc1 (centres unmarked) [Example 16] | 3020 | 2400 | 129 |  |  |  |
| CC(C)(C)NCC(O)CON=C1c2ccccc2-c2ccccc21 (centres unmarked) [Example 1, 9-(3-tert.butylamino-2-hydroxypropoxy)imino-fluorene hydrochloride] |  |  |  | 0.2 | 3 | 3 |
| CC(C)NCC(O)CON=C1CCCc2ccccc21 (centres unmarked) [Example 15] | 676 | 759 | 12.6 |  |  |  |
| CC(=NOCC(O)CNC(C)C)c1ccccc1 (centres unmarked) [Example 13] | 229 | 186 | 28.8 |  |  |  |
| CC(=NOCC(O)CNC(C)(C)C)c1ccccc1Cl (centres unmarked) [Example 20] | 4.57 | 4.27 | 13.8 | 0.07 | 1 | 0.7 |
| CC(C)NCC(O)CON=c1c2ccccc2oc2ccccc12 (centres unmarked) [Example 10] | 79.4 | 219 | 155 |  |  |  |
| CC(C)(C)NCC(O)CON=C1CCCc2ccccc21 (centres unmarked) [Example 18] | 70.8 | 28.8 | 0.631 | 0.05 | > 1 | > 1 |
| CC(=NOCC(O)CNC(C)(C)C)c1ccc(Cl)cc1 (centres unmarked) [Example 2, 4-chloro-acetophenone-0-(3-tert.butylamino-2-hydroxy-propyl)oxime hydrochloride] | 26.3 | 37.2 | 245 | 1 | > 10 | 10 |
